Results on three compounds are retold here after US20080260714A1, “Fibrin Compositions Containing Strontium Compounds” (BAXTER INTERNATIONAL INC., priority 2007, published 2008).

The subject of data set [1] is osteosarcoma cell line UMR-106. Particulars: for PTH bioactivity: 24 h pre-incubation of UMR-106 cells with 20 mM salt prior to TGplPTH treatment, five experiments; for synergistic effect with PTH in generation of cAMP: UMR-106 osteoblast cells, 20 mM salt.
Protocol: The present example describes in vitro studies on rat osteosarcoma cells to investigate if a combination of parathyroid hormone (PTH) and Strontium (used as SrCl2) on activation of bone formation factors like increased cAMP production in osteoblasts.
The osteosarcoma cell line UMR-106 (NewLab Bioquality AG, Erkrath, Germany) was used to perform the bioassay.
UMR-106 cells were seeded in growth medium at a density of 30000 cells/cm^2 and incubated at 37° C./8.0% CO2 After 24 hours, medium was exchanged with either fresh medium, medium containing 20 mM SrCl2 or medium containing 20 mM CaCl2. Cells were further incubated at 37° C./8.0% CO2 for 24 hours. Cells were harvested according to the following procedure:
Cells were washed twice with HBSS and detached from the surface using 6 ml trypsine/EDTA for 3 min at room temperature. Trypsin digestion was stopped with 12 ml growth medium. Following centrifugation (3 min, 1000 rpm, RT) cells were resuspended in 12 ml starvation medium and counted with a CASY cell counter. The rate of dead cells was below 10% in every experiment. Cells were resuspended to a final concentration of 1.6×10^6 cells/ml in starvation medium. 50 μl of cell suspension was transferred into each well of a 96-well plate and incubated for 30 min at 37° C., 8.0% CO2.
Samples were diluted in freshly prepared starvation medium containing 2 mM IBMX (SI medium). For preparation of SI-medium 30 μl of a 0.67M IBMX stock in DMSO was added to 10 ml of starvation medium.
All sample dilutions were prepared with this medium to inhibit phosphodiesterase activity in UMR-106 cells (Janik, P., 1980; Chasin M. and Harris, D. N., 1976). 50 μl of diluted samples (as indicated in results) were added to the cells after 30 min incubation at 37° C. For cAMP production cells were incubated for 1 h at 37° C., 8.0% CO2. Each sample concentration was added to cells at least in duplicates following cAMP analysis in duplicates.
Cell lysis and dilution of cAMP For extraction of cAMP 100 μl of cell suspension containing PTH was incubated with 25 μl (final dilution 1:5) lysis reagent solvent 1A that is part of the cAMP Biotrak EIA kit (GE Healthcare). For total lysis, cells were shaken for 15 min at 500 rpm at room temperature. […]
Data analysis. The optical density was determined in a plate reader (Synergy HT) by measuring the absorbance of the samples at 450 nm using the software KC4. […]
cAMP concentration of the samples. Taking into account the dilution factor (20×) the produced cAMP amounts were calculated using the parameters (slope and intercept) of the standard curve.
Preparation of Samples for Bioassay Analysis. […] For all samples and all dilutions, mean values of OD450, standard deviations, cAMP concentrations and coefficients of variations were calculated.
Data set [2] concerns SaOS-2 cell. The procedure: For the initial experiments, cells were seeded on the surface of clots.
Data set [3] relates to human osteoblast-like cells (SaOS-2). Kind of data set: alkaline phosphatase production of cells grown on fibrin clots. In kind it is cell-based. Conditions: SaOS-2 on clots containing strontium; production over 30 minutes; preliminary result. The procedure: (§1) For in-vitro experiments, the clots were prepared by pipetting 150 μl of the fibrinogen solution to the wells of a 24 well plate. The plate was put on plate shaker to ensure an even distribution over the well bottom. 150 μl of the thrombin solution was then added to the well and the plate was put on a plate shaker to ensure homogeneous clots. A human osteoblast-like cell line (SaoS-2) was cultured on the clots for up to 7 days to see if any differences in cell proliferation/cell differentiation could be observed.
These experiments are being repeated with a 14 day investigative period.

A short description of data set [4]: turbidimetric analysis of clots. In kind it is physicochemical. Particulars: strontium containing clots in comparison to calcium containing clots. As to the method: In addition to the cell studies observation, turbidmetric analysis was carried out to examine if the clot structure was altered as a result of the strontium (FIG. 4) The clot turbidity is directly proportional to average cross-sectional area of the fibres, therefore the more turbid the clot the greater the fiber diameter.

The test system of data set [5] is human osteoblast-like cells (SaOS-2). Kind of data set: Alamar Blue proliferation of cells grown on fibrin clots. Particulars: SaOS-2 on clots up to 7 days; Sr salt in thrombin dilution buffer; compared to normal clot with 20 mM CaCl2. In kind it is cell-based. The procedure: as §1
(Resazurin is reduced to fluorescent resorufin, in cell work by metabolically active cells.)

For the compound `[Ca+2].[Cl-].[Cl-]` [CaCl2, calcium chloride, reference compound], in data set [1], the PTH bioactivity result is given as “no change in PTH bioactivity” and the “synergistic effect with PTH in generation of cAMP” value is “No such effect”. Also, the “time at which cell death occurs” value in data set [2] (SaOS-2, 12.5 mM CaCl2 in medium) is at most 24 h. In data set [2] (SaOS-2 on tissue culture plastic, medium with 12.5 mM Sr or Ca), the “cell survival / proliferation (MTS assay)” value is reported as “Cell death”.

With `[Cl-].[Cl-].[Sr+2]` [SrCl2, Strontium Chloride], the alkaline phosphatase expression entry in data set [3] is given as “increase in alkaline phosphatase expression”. For the same compound, in data set [1], the PTH bioactivity entry is given as “twofold increased bioactivity” and the “synergistic effect with PTH in generation of cAMP” value was “positive synergistic effect”. The “clot turbidity (kinetics and absorbance)” value in data set [4] was “very little difference in the kinetics and absorbance”. In data set [5], the “proliferation (Alamar Blue)” value is “significant increased proliferation”.

On to `CC(=O)[O-].CC(=O)[O-].[Sr+2]` [Strontium Acetate], for which the alkaline phosphatase expression entry in data set [3] is recorded as “appear not to be significant”.
